The source of these data is patent publication EP4140481A1, “PROTEIN-OLIGOMER BINDING AGENTS AND THERAPEUTIC USES THEREOF” (Galyan Bio, Inc., priority 2021, dated 2023).

One data set addresses T1, A30P mutant α-Synuclein (Homo sapiens, UniProt P37840, A30P).
T1 construct: purchased rPeptide, Watkinsville, Georgia S-1005-2
The data set can be described thus: Dynamic Light Scattering (DLS), induced aggregation. Format: biochemical. Here is the method: Proteins were ultracentrifuged with 50,000 rpm (rounds per minute) for one hour at 2 °C. The supernatant was used for DLS measurements. DLS measurements were conducted with Malvern Zetasizer Nano (Malvern Panalytical Ltd, United Kingdom).
A30P mutant α-Synuclein (catalog S-1005-2, rPeptide, Watkinsville, Georgia) was solved in 20 mM phosphate, pH 7.4 buffer.

A further data set has as its target T2, phospho-Tau (Ser404) (Mus musculus, UniProt P10637).
T2 construct: host or cells: ST HDH Q7/7 mouse striatal cell line
In words: Phospho-Tau (Ser404) immunocytochemistry in STHdh 7/7 cells. Format: cell-based. The text has this: Effect of Compound 4 on Phospho-Tau (Ser396) levels - ST HDH Q7/7 (CH00097, Coriell Institute) striatal derived cell line from a knock in transgenic mouse containing HTT loci with a humanized Exon 1 containing 7 polyglutamine repeats. Diffuse mHTT quantified with immunocytochemistry as described in Example 33 with the exception that instead of 3B5H10 antibody for staining mHTT, phospho-Tau (Ser404) polyclonal antibody (ThermoFisher, Catalog 44-758G) was used to stain phospho-Tau (Ser396) and no heat shock was used.

The next data set has as its target T3, phospho-Tau (Ser396) (Mus musculus, UniProt P10637).
T3 construct: host or cells: ST HDH Q7/7 mouse striatal cell line
In words: Phospho-Tau (Ser396) immunocytochemistry in STHdh 7/7 cells. Format: cell-based. The conditions noted are these: for Phospho-Tau (Ser396) reduction: heat shocked 3 hours, versus untreated STHdh 7/7. Here is the method:
Effect of Compound 4 on Phospho-Tau (Ser396) levels - ST HDH Q7/7 (CH00097, Coriell Institute) striatal derived cell line from a knock in transgenic mouse containing HTT loci with a humanized Exon 1 containing 7 polyglutamine repeats. Immunocytochemistry was conducted as described in Example 33 with the exception that instead of 3B5H10 antibody for staining mHTT, phospho-Tau (Ser396) polyclonal antibody (ThermoFisher, Catalog 44-752G) was used to stain phospho-Tau (Ser396).

A further data set can be described thus: Microsomal stability. The conditions noted are these: humans versus mice. Format: in vitro ADME.
A further data set deals with mHTT. The data set can be described thus: Immunohistochemistry of nuclear diffuse mHTT in brain tissue from the R6/2 study. It is filed as in vivo, R6/2 mice. Conditions: 33 mg/kg i.p. QD; treated animals n= 9 versus vehicle treated TG mice; p = 0.01. As to the method: Preparation of Immunohistology slides - Brain tissue collected within the animal study was prepared for IHC studies by Charles River staff. The brains were fixed by immersion in 4% paraformaldehyde for at least 24 h after which brain samples were cryoprotected by 30% sucrose solution for 72 h. Finally, the brain samples were flash-frozen in liquid nitrogen and stored at -80 °C. The brain samples were cut using a microtome cryostat system, producing coronal brain tissue sections of 40 µm thickness. Those were mounted on individual adhesive-coated microscope glass slides with frosted ends.
Staining - Goat anti-Rabbit IgG (H+L) Alexa Fluor 647 (1:500, ThermoFisher Invitrogen) was used as a secondary antibody for binding to CBP antibody. […]
The blocking buffer was freshly prepared and consisted of PBS (Sigma-Aldrich) with 5% normal goat serum (NGS), 0.2% BSA, 0.2% lysine and 0.2% glycine. […] On day six, samples were washed and then incubated with DAPI containing mounting medium Fluoroshield (Sigma-Aldrich), in order to counterstain the nuclei and preserve the fluorescence. […]
Results - Figures 23A-23F show the distinction of inclusion bodies (IB) and diffuse species of mHTT by confocal fluorescence imaging. […] Consequently, this distinction of diffuse mHTT and IBs was implemented in the analysis macro to quantify the different species of mHTT within striatum and cortex of R6/2 mice. […]

The mark [1] stands for this setting: by number, 100 µM equimolar Compound 4.
The mark [2] stands for this setting: by volume, 100 µM equimolar Compound 4.

T3 sequence (P10637 whole entry): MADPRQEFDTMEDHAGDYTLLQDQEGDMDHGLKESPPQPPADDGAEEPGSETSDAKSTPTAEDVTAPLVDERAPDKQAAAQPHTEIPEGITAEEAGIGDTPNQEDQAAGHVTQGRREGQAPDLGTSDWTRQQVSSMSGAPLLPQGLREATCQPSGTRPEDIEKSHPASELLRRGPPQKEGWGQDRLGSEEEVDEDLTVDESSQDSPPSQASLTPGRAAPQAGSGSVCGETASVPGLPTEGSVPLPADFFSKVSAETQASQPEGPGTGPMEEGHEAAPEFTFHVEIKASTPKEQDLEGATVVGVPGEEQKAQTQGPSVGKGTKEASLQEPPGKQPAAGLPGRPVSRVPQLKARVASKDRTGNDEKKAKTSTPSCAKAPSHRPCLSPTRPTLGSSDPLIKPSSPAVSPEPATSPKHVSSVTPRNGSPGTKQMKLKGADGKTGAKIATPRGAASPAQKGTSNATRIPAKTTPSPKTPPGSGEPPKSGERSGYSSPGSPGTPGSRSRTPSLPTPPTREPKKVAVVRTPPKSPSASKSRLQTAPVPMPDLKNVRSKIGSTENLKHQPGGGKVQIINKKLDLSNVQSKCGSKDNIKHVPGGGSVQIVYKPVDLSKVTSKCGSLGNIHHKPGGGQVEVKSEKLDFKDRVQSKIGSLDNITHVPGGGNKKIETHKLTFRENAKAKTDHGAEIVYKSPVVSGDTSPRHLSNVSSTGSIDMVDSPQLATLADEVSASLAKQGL
T2 sequence (P10637 whole entry): as above

Regarding `CCc1c(C)[nH]c2ccc(C(=O)NCCN(CC)CC)cc12` [Compound 4, N-(2-(diethylamino)ethyl)-3-ethyl-2-methyl-1H-indole-5-carboxamide], at A30P mutant α-Synuclein (setting [1]), the “% Number, Peak 1” value was 100,0% and the “Size, Peak 1” value is recorded as 86,77 nm. In addition, at A30P mutant α-Synuclein (setting [2]), the “% Volume, Peak 1” value worked out at 36.1%; the “% Volume, Peak 2” value is 36.3%; the “% Volume, Peak 3” value is recorded as 27.6%; the “Size, Peak 1” value worked out at 107.0 nm. In addition, at A30P mutant α-Synuclein (setting [2]), the “Size, Peak 2” value was determined as 313.6 nm and the “Size, Peak 3” value stood at 3063 nm. The “aggregation of oligomers of A30P” value at A30P mutant α-Synuclein (equimolar Compound 4) is on record as “induces the formation of aggregates of oligomers of A30P”. Further, the “Phospho-Tau (Ser404) reduction” value on phospho-Tau (Ser404) (10 µM, no heat shock, versus untreated STHdh 7/7) was 40%. For the same compound, at phospho-Tau (Ser404) (10 mM ammonium chloride), the “Phospho-Tau (Ser404) reduction with autophagy inhibitor” value is reported as “could not reduce”. The “Blood Brain Barrier Penetrability AUCbrain/AUCplasma” value (Compound 4) is “AUCbrain/AUCplasma = 2.27”. Besides, the “penetration of the blood brain area in vivo” value (intravenous, 1 mg/kg body weight, brain tissue) is recorded as “penetrates the blood brain area”. Further, the “Phospho-Tau (Ser396) reduction with autophagy inhibitor” value at phospho-Tau (Ser396) (5 µM, 10 mM ammonium chloride) is recorded as “could not reduce”. Further, the “Phospho-Tau (Ser396) reduction” value at phospho-Tau (Ser396) (5 µM) is 20%. Moreover, at phospho-Tau (Ser396) (10 µM, 10 mM ammonium chloride, read-out: Phospho-Tau (Ser396) reduction with autophagy inhibitor), the inhibition at 10 µM stood at 15.2%. The “Phospho-Tau (Ser396) reduction” value on phospho-Tau (Ser396) (10 µM) is 26.3%.

For the compound `Cc1[nH]c2ccc(C(=O)NCCN(C(C)C)C(C)C)cc2c1C` [Compound 22], the “microsomal stability in humans, times higher in comparison to mice” value in the data set “Microsomal stability” is recorded as 20 times. For the same compound, in the data set on mHTT, the “Nuclear diffuse mHTT reduction in the cortex” value was 40%.
